Reference: PubChem BioAssay (NCI)
Where “and” joins values, the source holds several entries; their conditions need not be identical. Identical values can stand only once.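 Method: 48-hour compound exposure of cells in 96-well plates, five concentrations, linear interpolation of endpoints. Here, GI50 denotes the concentration required for 50% inhibition of growth. TGI marks complete inhibition of growth.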

Assays:
Test in all cases: NCI tumour cell line growth inhibition, 48 h
[1] = system: DLD-1 colon
[2] = system: DMS 273 small cell lung
[3] = system: HOP-18 NSCLC
[4] = system: KM20L2 colon
[5] = system: LXFL 529 NSCLC
[6] = system: RXF-631 renal
[7] = system: SNB-78 CNS
[8] = system: XF 498 CNS
[9] = system: MDA-N

Compound | TGI [1] | TGI [2] | TGI [3] | TGI [4] | TGI [5] | TGI [6] | TGI [7] | TGI [8] | TGI [9] | also measured
O=C(O)CCSC(=O)Nc1cccc2ccccc12 | > 100 µM | > 100 µM | > 100 µM | > 100 µM | > 100 µM | > 100 µM | > 100 µM | > 100 µM |  | 
C1C[OH+]CCNCC[OH+]CC[OH+]CCN1.N.[Cl-].[Pt+4] | > 100 µM | > 100 µM | > 100 µM | > 100 µM | > 100 µM |  |  |  |  | GI50 [1]: 46.1 µM; GI50 [2]: 28.7 µM; GI50 [3]: 37.5 µM; GI50 [4]: 22.8 µM; GI50 [5]: > 100 µM
FC(F)(F)c1nc(SCc2ccc(Cl)cc2)n[nH]1 |  |  |  |  |  |  |  |  | > 100 µM | 
NNc1nc2ccccc2o1 |  |  |  |  |  |  |  |  | > 100 µM | 
CCc1[nH]nc(C(N)=O)c1N=NN(C)C |  |  |  |  |  |  |  |  | > 100 µM | 
COc1ccccc1NC(=O)C1=C(C)NC(C)=C(C(=O)Nc2ccccc2OC)C1c1ccccc1Cl | > 100 µM | > 100 µM | > 100 µM | > 100 µM | > 100 µM | > 100 µM |  | > 100 µM |  | 
CC(=O)NCc1c(C(N)=O)ncn1Cc1ccccc1 |  | > 100 µM | > 100 µM | > 100 µM | > 100 µM | > 100 µM | > 100 µM | > 100 µM |  | 
Cc1ccc2[nH]c(O)c(N=Nc3ccccc3[N+](=O)[O-])c2c1 |  |  |  |  |  |  |  |  | > 100 µM | 
O=C(O)CN1C(=O)CN=C(c2ccccn2)c2cc(Cl)ccc21 |  |  |  |  |  |  |  |  | > 100 µM | 
O=[N+]([O-])c1cc(I)cc(/C=N/NS(=O)(=O)c2ccc(Cl)cc2)c1O | 59.4 µM | 38.5 µM | 45.5 µM | > 100 µM | 37.2 µM | 45.3 µM | 70.9 µM |  |  | 
COc1ccc(-c2cc(=O)c3cc(C)c(C)c(C(=O)O)c3o2)cc1 | > 100 µM | > 100 µM |  | > 100 µM | > 100 µM | > 100 µM | > 100 µM | > 100 µM |  | 
CCOC(=O)CNC(=O)OCc1ccccc1 | > 100 µM | > 100 µM |  |  | > 100 µM | > 100 µM | > 100 µM | > 100 µM |  | 
OCCN(CCO)c1nc(N2CCCCC2)c2nc(N(CCO)CCO)nc(N3CCCCC3)c2n1 |  |  |  |  |  |  |  |  | > 100 µM | 
O=C(C=Nc1ccccc1S)c1ccco1 | 28.1 µM | 31.7 µM | 37.1 µM | 34.7 µM | 15.9 µM | 25.7 µM | 32.7 µM |  |  | GI50 [5]: 4.57 µM; GI50 [6]: 7.22 µM
COc1cc(/C=C2\NC(=O)C3Cc4c(OC)c(C)c(OC)c(OC)c4C2N3C)c(OC)c(C)c1OC (stereo not given) | > 100 µM | > 100 µM | > 100 µM | > 100 µM | > 100 µM | > 100 µM | > 100 µM | > 100 µM |  | 
CC1OC(CC(=O)O)Cc2c1c(O)c1c(O)cc(-c3cc(=O)c4c(=O)c5c(c(=O)c=4c3=O)CC(CC(=O)O)OC5C)c(O)c1c2O (stereo not given) | 26.4 µM | 47 µM | 45.7 µM | > 68 µM | 22.8 µM |  | > 73 µM | 34.5 µM |  | GI50 [9]: 29.1 µM
CCOC(=O)c1c(-c2ccc(OC)c(O)c2)c(C#N)c(=S)n(C2OC(COC(C)=O)C(OC(C)=O)C(OC(C)=O)C2OC(C)=O)c1-c1ccccc1 (stereo not given) |  |  |  |  |  |  |  |  | 37.8 µM and > 100 µM | GI50 [9]: 16.8 µM and > 100 µM

Compound | TGI [1] | TGI [2] | TGI [3] | TGI [4] | TGI [5] | TGI [6] | TGI [7] | TGI [8] | TGI [9] | also measured
CC(=O)OC1=C2CC[C@@H]3C(CC[C@@]4(C)C3CC[C@@H]4OC(C)=O)[C@@]2(C)CC(C#N)C1=O (stereo not given in full) | 69.8 µM | 74 µM |  | > 100 µM | 91.3 µM |  | 90.8 µM | 80.8 µM |  | 
CN=C1CN=C(OP(=O)(N2CCOCC2)N2CCOCC2)c2cc(Cl)ccc2N1 | > 100 µM | > 100 µM | > 100 µM | > 100 µM | > 100 µM | > 100 µM | > 100 µM | > 100 µM |  | 
CC[O-].CC[O-].O=C([CH-]C(=O)c1ccccc1)CCCCCCC(=O)[CH-]C(=O)c1ccccc1.[Ti+4] | > 100 µM | > 100 µM | > 100 µM | > 100 µM | > 100 µM |  | > 100 µM | > 100 µM |  | GI50 [1]: > 100 µM; GI50 [2]: > 100 µM; GI50 [3]: > 100 µM; GI50 [4]: > 100 µM; GI50 [5]: > 100 µM; GI50 [7]: > 100 µM; GI50 [8]: > 100 µM
[Co].[O-]c1cccnc1C=Nc1ccccc1.[OH3+] | > 100 µM | > 100 µM |  | > 100 µM | > 100 µM |  | > 100 µM | > 100 µM |  | GI50 [1]: 90.7 µM; GI50 [2]: > 100 µM; GI50 [4]: > 100 µM; GI50 [5]: 47.2 µM; GI50 [7]: > 100 µM; GI50 [8]: > 100 µM
FC(F)(F)c1cc(NC(=S)N2c3ccccc3-n3cccc3C2c2cccnc2)cc(C(F)(F)F)c1 (stereo not given) |  |  |  |  |  |  |  |  | 32.5 µM | GI50 [9]: 11.6 µM
CCC[CH2][Sn]1([CH2]CCC)[O]CC[S]1 | 1.73 µM | 3.56 µM | 1.89 µM | 2.75 µM | 0.579 µM | 1.34 µM | 2.26 µM | 1.02 µM |  | GI50 [1]: 0.47 µM; GI50 [2]: 1.13 µM; GI50 [3]: 0.717 µM; GI50 [4]: 1.41 µM; GI50 [5]: 0.134 µM; GI50 [6]: 0.285 µM; GI50 [7]: 0.494 µM; GI50 [8]: 0.476 µM
O=C1OC(c2ccc(Cl)cc2)=N/C1=C\c1ccccc1 |  |  |  |  |  |  |  |  | > 100 µM | 
CO/C=C(\Br)c1ccc2c(c1)OCO2 |  | > 100 µM |  |  | > 100 µM | > 100 µM | > 100 µM | > 100 µM |  | 
COc1c(C)c(OC)c(C(=O)CC(C)C)c(OC)c1C |  |  |  |  |  |  |  |  | > 100 µM | 
CC(=O)[CH-]C(C)=O.CC(=O)[CH-]C(C)=O.[Cl-].[O]=[V] | > 100 µM | 39.7 µM | > 100 µM |  | > 100 µM |  |  | 66 µM |  | GI50 [1]: 34.6 µM; GI50 [2]: 20.9 µM; GI50 [3]: > 100 µM; GI50 [5]: 47.5 µM; GI50 [8]: 17.8 µM
COc1ccc(-c2oc3c(OC)c(OC)c(OC)c(O)c3c(=O)c2OC)cc1O | > 100 µM | 16.3 µM |  | 26.1 µM | > 100 µM | 35.8 µM | > 100 µM | 0.68 µM |  | GI50 [1]: 0.0674 µM; GI50 [5]: < 0.01 µM; GI50 [7]: < 0.01 µM
C/C(=C\C(C[C@](C)(O)C(O)CCC#C[Si](C)(C)C)S(=O)(=O)c1ccccc1)CC/C=C/CO[Si](C)(C)C(C)(C)C (stereo not given in full) | 48.2 µM | 30.6 µM |  | 24 µM |  | 23.9 µM | 35.6 µM | 26.2 µM |  | 
O=C(CC1(O)C(=O)Nc2ccccc21)c1ccc(Cl)cc1Cl (stereo not given) | > 100 µM | > 100 µM |  | > 100 µM | > 100 µM | > 100 µM | > 100 µM | > 100 µM |  | 
C=CCOc1ccc(N)c([N+](=O)[O-])c1 |  |  |  |  |  |  |  |  | > 100 µM | 
N#CC1(N2CCCC2)CCC2(CC1)OCCO2 |  | > 10 µM |  | > 100 µM |  |  | > 100 µM |  |  | 
CN(C)CCN(C)C(=O)c1cccc2cccc(C(=O)O)c12 | > 100 µM | > 100 µM | > 100 µM | > 100 µM | > 100 µM | > 100 µM | > 100 µM | > 100 µM |  | 
